Data published in the NIST ThermoML archive (doi:10.1021/acs.jced.5b00724).
Where “and” joins values, the source holds several entries; their conditions need not be identical. Identical values can stand only once.

Assays:
[1] = Liquid; for mass density: Vibrating tube method
[2] = Boiling temperature at pressure P; details: Liquid, Ebulliometric method (Recirculating still)
[3] = refractive index (Na D-line) (dimensionless); details: 298.15 K; 101.33 kPa; Liquid; Standard Abbe refractometry

CC1CCC(=O)O1 (stereo not given) [γ-valerolactone]
[1]
Details	mass density	vapor or sublimation pressure [kPa]
293.15 K, 186 kPa	1053.38 kg/m3	–
293.15 K, 187.01 kPa	1053.43 kg/m3	–
293.15 K, 476.37 kPa	1053.68 kg/m3	–
293.15 K, 977 kPa	1054.07 kg/m3	–
293.15 K, 1979.3 kPa	1054.81 kg/m3	–
293.15 K, 2978.5 kPa	1055.47 kg/m3	–
293.15 K, 3976.8 kPa	1056.08 kg/m3	–
293.15 K, 4978.1 kPa	1056.65 kg/m3	–
298 K, 101.33 kPa	1049.2 kg/m3	–
298.1 K, 107 kPa	1048.8 kg/m3	–
298.16 K, 187.01 kPa	1048.68 kg/m3	–
298.16 K, 189.01 kPa	1048.83 kg/m3	–
298.16 K, 480.38 kPa	1048.97 kg/m3	–
298.16 K, 978 kPa	1049.41 kg/m3	–
298.16 K, 1980.3 kPa	1050.16 kg/m3	–
298.16 K, 2980.5 kPa	1050.86 kg/m3	–
298.16 K, 3977.8 kPa	1051.48 kg/m3	–
298.16 K, 4976.1 kPa	1052.05 kg/m3	–
350.18 K, Closed cell (Static) method	–	1.2
353.15 K, 187.01 kPa	996.384 kg/m3	–
353.15 K, 190.01 kPa	996.734 kg/m3	–
353.15 K, 194.01 kPa	997.077 kg/m3	–
353.15 K, 198.02 kPa	997.127 kg/m3	–
353.15 K, 484.38 kPa	996.824 kg/m3	–
353.15 K, 492.39 kPa	997.272 kg/m3	–
353.15 K, 979.01 kPa	997.655 kg/m3	–
353.15 K, 984.01 kPa	997.904 kg/m3	–
353.15 K, 985.01 kPa	997.898 kg/m3	–
353.15 K, 1981.3 kPa	998.74 kg/m3	–
353.15 K, 1987.3 kPa	998.832 kg/m3	–
353.15 K, 1988.3 kPa	998.837 kg/m3	–
353.15 K, 2979.5 kPa	999.633 kg/m3	–
353.15 K, 2985.5 kPa	999.73 kg/m3 and 999.724 kg/m3	–
353.15 K, 3979.8 kPa	1000.43 kg/m3	–
353.15 K, 3983.8 kPa	1000.53 kg/m3	–
353.15 K, 3986.8 kPa	1000.53 kg/m3	–
353.15 K, 4978.1 kPa	1001.2 kg/m3	–
353.15 K, 4983.1 kPa	1001.29 kg/m3	–
353.15 K, 4984.1 kPa	1001.29 kg/m3	–
353.16 K, 188.01 kPa	997.169 kg/m3	–
353.16 K, 489.39 kPa	997.314 kg/m3	–
393.15 K, 180 kPa	958.067 kg/m3	–
393.15 K, 182 kPa	958.857 kg/m3 and 958.463 kg/m3	–
393.15 K, 486.38 kPa	958.065 kg/m3	–
393.15 K, 491.39 kPa	958.888 kg/m3	–
393.15 K, 978 kPa	959.43 kg/m3	–
393.15 K, 984.01 kPa	959.712 kg/m3	–
393.15 K, 1981.3 kPa	960.847 kg/m3	–
393.15 K, 1985.3 kPa	960.883 kg/m3	–
393.15 K, 2980.5 kPa	961.927 kg/m3	–
393.15 K, 2984.5 kPa	961.921 kg/m3	–
393.15 K, 3978.8 kPa	962.917 kg/m3	–
393.15 K, 3981.8 kPa	962.913 kg/m3	–
393.15 K, 4977.1 kPa	963.866 kg/m3	–
393.15 K, 4979.1 kPa	963.861 kg/m3	–
393.16 K, 203.03 kPa	958.939 kg/m3	–
433.14 K, 184 kPa	918.984 kg/m3	–
433.15 K, 181 kPa	918.395 kg/m3	–
433.15 K, 492.39 kPa	919.562 kg/m3	–
433.15 K, 1984.3 kPa	921.775 kg/m3	–
433.15 K, 2984.5 kPa	923.091 kg/m3	–
433.15 K, 3983.8 kPa	924.314 kg/m3	–
433.15 K, 4980.1 kPa	925.496 kg/m3	–
433.16 K, 491.39 kPa	919.299 kg/m3	–
433.16 K, 982.01 kPa	920.309 kg/m3	–
453.14 K, 183 kPa	898.494 kg/m3	–
453.15 K, 199.02 kPa	898.908 kg/m3	–
453.15 K, 490.39 kPa	898.859 kg/m3	–
453.15 K, 983.01 kPa	900.059 kg/m3	–
453.15 K, 1982.3 kPa	901.6 kg/m3	–
453.15 K, 2985.5 kPa	903.051 kg/m3	–
453.15 K, 3983.8 kPa	904.412 kg/m3	–
453.15 K, 4981.1 kPa	905.731 kg/m3	–

[2]
Details	Boiling temperature at pressure P [°C]
0.58 kPa	65.0
1.14 kPa	77.5
1.49 kPa	83.04
1.86 kPa	87.47
2.49 kPa	93.77
4.37 kPa	106.5
8.66 kPa	123.7
10.61 kPa	129.4
11.92 kPa	132.8
16.51 kPa	142.2
20.17 kPa	148.1
27.32 kPa	157.78
35.64 kPa	166.5
43.21 kPa	173.18
61.04 kPa	185.72
82.18 kPa	197.04

Details	refractive index
[3]	1.4316
